How the values were obtained:
[1] = UV-vis absorption, fluorescence emission, absolute fluorescence quantum yield and fluorescence lifetime; format: physicochemical; details: for molar extinction coefficient: at absorption peak about 710 nm, DCM; for Δλ, Stokes shift / λem, maximum emission wavelength / τS, fluorescence lifetime: in dichloromethane; for UV-vis absorption maximum in PBS: phosphate-buffered solution (PBS)
Experimental: First, the UV–vis absorption and fluorescence emission spectra of the series of compounds were measured and analyzed. […] Concurrently, the Stokes shifts of all four compounds were more than 60 nm (Figure 2a,b and Table 1), which could effectively improve the signal-to-noise ratio (SNR) of fluorescence compared to the ordinary TCy7. The fluorescence lifetimes of all four compounds were within 2 ns, indicating no delayed fluorescence generation (Figure 2c and Table 1). […]
Materials and Instrumentation
All the general chemicals used in this paper are purchased from Energy Chemical Co. and Innochem Chemical Co. unless otherwise specified. All solvents were […]
analytically pure. […]
All the other solvents and reagents used in this study were of analytical grade. All the BALB/c mice were purchased from Liaoning […]
III 500 spectrometers. Absorption and emission spectra for all the compounds were achieved on the Agilent Technologies CARY 60 UV -Vis spectrophotometer and VAEIAN CARY Eclipse fluorescence spectrop hotometer (Serial No. FL0812 -M018), […]
respectively. Unless otherwise specified, all spectroscopic tests were performed in a quartz cell (10×10 mm). Fluorescence quantum yield of all the compounds were measured on the HAMAMATSU absolute fluorescence quantum yield spectrometer (Serial No. C11347). Triplet lifetime of compounds were acquired on LP980 laser flash photolysis spectrometer (Edinburgh Instruments, U.K.). The cell confocal laser scanning microscope (CLSM) images were all obtained by using Olympus FV3000 confocal laser scanning microscope. […]
Figure 4, Figure S6 and Figure S7). The spin-orbital coupling (SOC) values between the S1/S1V and T2 were calculated with ORCA 4.13. Hole-Electron analysis was carried […]
ISC rate constants calculation […]
Triplet lifetime measurements
The triplet life of QTCy7-R was measured by LP980 laser flash photolysis spectrometer (Edinburgh Instruments Ltd.) in combination with a Nd:YAG laser (Surelite I-10, Continuum Electro-Optics, Inc.). The oxygen in the sample was removed by aerating nitrogen for 30 min. The samples (5 μM) were excited by a 610 nm laser pulse (1 Hz, 100 mJ per pulse, fwhm ≈ 7 ns) at 300 K. The triplet state decay kinetics were measured at the maximum absorption wavelengths of each compound.
Fluorescence lifetime and femtosecond time-resolved transient absorption spectra […]
The fluorescence lifetimes and femtosecond time-resolved transient absorption spectra of dyes were recorded on a freshly prepared samples using the time-correlated single photon counting (TCSPC) method (PicoQuant PicoHarp 300) at 300 K. The concentration is 10 μM, solvent is DCM.
Hepatoma carcinoma cells (HepG-2 cells), human mammary carcinoma (MCF-7) and mouse breast cancer cells (4T1) were maintained in Dulbecco’s modified Eagle’s

HepG2 cells = assay: MTT cytotoxicity assay, HepG2; format: cell-based, human; details: for IC50: Homo sapiens; for surviving cells: HepG2, dark, concentration around 160 μM
From the text: To further quantitatively explore the in vitro anticancer potency of QTCy7-R, the methyl thiazolyltetrazolium (MTT) assay was employed to detect cell viability. […] Next, we evaluated the cytotoxicity under dark conditions of this series of compounds at high concentrations (Figure 9e), as due to the characteristics of mitochondrial accumulation, QTCy7-Me and QTCy7-Ph might lead to mitochondrial depolarization and apoptosis at high concentrations. However, its IC50 value could still reach about 60 μM, which was almost […] than those of all cyanine photosensitizers reported. […] The photocytotoxicity index value (dark IC50/light IC50) of QTCy7-Ac was >500, manifesting that QTCy7-Ac is a PS with high efficacy but low cytotoxicity, which is extremely promising in clinical application. […]
Cytotoxicity was tested by the reduction of methyl thiazolyl tetrazolium to formazan by succinic acid dehydrogenase in the mitochondria of living cells (MTT assay). HepG2 cells, MCF7 cells and 4T1 cells were seeded to 96-well microplates (Nunc, Denmark) with a density of 1 × 10^5 cells/mL cells in 100 μL DMEM medium and incubated at 37 °C for 24 h. When the cell density reached about 70%, the QTCy7-R with different concentrations (4, 3, 2, 1.5, 1, 0.75, 0.5, 0.25, 0 μM) in PBS were added to the wells of cells in dark condition, respectively. For light groups, the cell incubation conditions were the same as those of the dark group and the cells were further incubated for 2 h, subsequently, the cells were subjected to 660 nm irradiation (20 mW/cm2) for different time (10 min, 5 min and 2.5 min) corresponding to different light doses (12 J/cm2, 6 J/cm2 and 3 J/cm2). Then all the cells were incubated for 12 h, after which the MTT solution in DMEM (0.5 mg/ml, 100 μL) was added to each well and the cells were incubated at 37 °C for another 4 h. The MTT solution was carefully removed and 100 μL DMSO was added to dissolve formazan, and the absorbance of each well was measured by a multifunctional microplate reader at 570 nm and 630 nm. The cell viability was obtained by the following equation: […]
Where “OD” represent the absorbance at 570 nm and 630 nm, “ps” and “control” represent experimental groups and control groups, respectively. […]

[2] = Oil-water partition coefficient (Log P); format: physicochemical
Experimental: In order to guarantee the preciseness of the supposition, electrostatic potential (ESP) analysis of the molecular surface was conducted to quantify the surface charge distribution.[48] With a unit positive charge, the surface potential of the molecule was mostly positive. As depicted in Figure 7a, most of the positive electrostatic potential regions on the surface of the molecules were located on the benzothiazole groups in all four compounds, while only a small amount of positive electrostatic potential and negative electrostatic potential are distributed on the benzoquinone group and the oxygen atom, respectively. […] On the contrary, QTCy7-Ph preferred a larger effective surface area at the low surface positive potential region (<55 kcal/mol). In addition, the areas of surface electrostatic potential in QTCy7-Me and QTCy7-Ac were maintained in a median (QTCy7-Ac was partly larger than QTCy7-Me) (Figure 7b). The oil–water partition coefficient (Log P) was also taken into account to study cell uptake. According to Log P (Figure 7c), the introduction of phenyl enhanced the lipophilicity of QTCy7-Ph, resulting a good membrane permeability, whereas the introduction of formyl enhanced the hydrophilicity of QTCy7-CHO, which decreased its cellular uptake capacity. […] This explains why only a small amount of QTCy7-CHO adhered on the membrane surface (Figure 7c).

[3] = HepG2, light or radiation study, HepG2, 660 nm irradiation 12 J/cm^2

Row | SMILES | ΦF, absolute fluorescence quantum yield [1] | molar extinction coefficient [1] | Δλ, Stokes shift [1] | λem, maximum emission wavelength [1] | τS, fluorescence lifetime [1] | UV-vis absorption maximum in PBS [1] | IC50 (HepG2 cells; HepG2, HepG2, dark conditions) | IC50 (HepG2 cells; [3]) | logP [2] | photocytotoxicity index (dark IC50/light IC50) (HepG2 cells; HepG2) | surviving cells (HepG2 cells) | IC50 (HepG2 cells; HepG2, light or radiation study, HepG2, 660 nm irradiation 3 J/cm^2) | IC50 (HepG2 cells; HepG2, light or radiation study, HepG2, 660 nm irradiation 6 J/cm^2) | enhancement compared with commercial Ce6 photosensitizer (HepG2 cells; cell destruction at low light doses)
1 | CCN1/C(=C/C=C2\C=C(C)C=C(/C=C/c3sc4ccccc4[n+]3CC)C2=O)Sc2ccccc21 [QTCy7-Me] | 16.7% | approximately 4 × 10^4 | 66 nm | 780 nm | 1.70 ns | 701 nm | ~60000 nM | ~900 nM | 1.43 | – | – | – | – | –
2 | CCOC(=O)C1=C/C(=C\C=C2/Sc3ccccc3N2CC)C(=O)C(/C=C/c2sc3ccccc3[n+]2CC)=C1 [QTCy7-Ac] | 31.4% | – | 67 nm | 703 nm | 1.97 ns | 610 nm | – | ~300 nM | 1.41 | > 500 | 70–80% | ~2000 nM | ~1200 nM | 11 fold
3 | CCN1/C(=C/C=C2\C=C(c3ccccc3)C=C(/C=C/c3sc4ccccc4[n+]3CC)C2=O)Sc2ccccc21 [QTCy7-Ph] | 17.2% | approximately 4 × 10^4 | 72 nm | 783 nm | 1.90 ns | 613 nm | ~60000 nM | ~300 nM | 1.69 | – | – | – | – | –
4 | CCN1/C(=C/C=C2\C=C(C=O)C=C(/C=C/c3sc4ccccc4[n+]3CC)C2=O)Sc2ccccc21 [QTCy7-CHO] | 28.0% | – | 60 nm | 690 nm | 1.82 ns | 552 nm | – | ~1800 nM | 1.17 | – | 70–80% | – | – | –
